Measurements published in patent US4734280A, “Treatment or prevention of PAF Acether-induced maladies” (priority 1984, dated 1988).
≈ marks a conversion by molar mass, not a printed value.

Key:
human platelets = test: Ex vivo PAF Acether-induced PA in man after IV administration; settings: IV 25 mg, PAF Acether 100 nM
Description: […] DMSO).
The same protocol described hereinabove for rabbit was used in man with only one dose of each Ginkgolide (IV 25 mg) and two blood takes (at 0.5 h and 1 h).

[1] = test system: guinea-pig lung parenchymal strip; test: PAF Acether-induced contraction of superfused lung parenchymal strip
rat portal vein = test: Isolated rat portal vein, PAF Acether-induced increase of basal tonus
Description: In vitro experiments were performed on isolated longitudinal strips of rat portal vein maintained in Krebs-Henseleit medium at 37° C. under an oxygen-rich gaseous circulation (95% O2 -5% CO2).
The preparations were allowed to equilibrate for 1 hour under isotonic conditions with 500 mg tension and rinced every 15 minutes. When myogenic activity was established, PAF Acether (10^-7 M) is added. It induced an increase of the basal tonus and frequency of the myogenic activity.

[2] = test system: guinea-pig isolated heart; test: Isolated Langendorff heart, PAF Acether effect; settings: PAF Acether 100 pM
From the text: The deletereous effect of PAF Acether on Isolated Langendorff heart has been previously described by J. BENVENISTE, C. BOULLET, C. BRINK and C. LABAT, Brit. J. Pharmacol, The action of PAF Acether on guinea-pig isolated heart preparation, 80: 81-3 (1983).
PAF Acether (100 pM) induced a decline in contractile strength (-30%) and a decrease of coronary flow (-50%).
This effect was dose-dependent (disappearance of protective activity when dose ≤10^-7 M).

Sprague-Dowley rats = test: Cutaneous vascular hyperpermeability induced by PAF Acether in the rat; type: in vivo; settings: 1 mg/kg IV
Description: Method: Intradermal injection of 25 ng of PAF Acether in the dorsal region of the rat with simultaneous IV injection of Evans blue dye (60 mg/kg/5 ml) induces vascular hyperpermeability and wheals formation. (for details see Basran GS, Page CP, Paul W and Morley J-Cromoglycate inhibits responses to platelet-activating factor (PAF Acether) in man: an alternative mode of action for DSCG in asthma-Eur. J. Pharma. (1983) 86 143-144).
These wheals were measured (surface in mm^2) at the inner side of the skin 30 mn after the injections and were taken off, put in 4 ml of formamide, incubated at 65° C. during 24 h in order to extract the dye and measure their coloration (optical density at 620 nm).
Groups of 6 Sprague-Dowley rats weighing 200 g were used and each rat received intradermal injections in two sites of the back. The experiment was performed in comparison with a reference compound, D 600 (methoxy verapamil), a calcium-blocker agent.
Treatments: Tested compounds were administered by IV route injected once simultaneously with the dye.

Hartley guinea-pig = test: PAF Acether-induced bronchoconstriction in the anesthetized guinea-pig; type: in vivo; settings: 1 mg/kg IV
Description: Method: (For details, see B. B. VARGAFTIG, J. LEFORT, F. WAL, M. CHIGNARD and M. C. MEDEIROS-Non-steroidal anti-inflammatory drugs of combined with anti-histamine and anti-serotonin agents interfere with the bronchial and platelet effects of PAF Acether-Enr. J. Pharm. (1982) 82 121-130). Male Hartley guinea-pig (400-500 g) were anesthetized with urethane 2 g/kg Ip., tracheotomised and ventilated by mean of a respiratory pump: 70-80 strokes mn, stroke volume 5 ml, a pneumothorax was done to abolish spontaneous respiration. The right jugular vein was catherized and used for injections.
The initial resistance was kept constant at 10 cm H2 O pressure according to the method of Konzett and Rossler and the overflowed airway was measured with a bronchospasm transducer UGO BASILE connected to a UGO BASILE recorder "GEMINI". Bronchial sensitivity of the animal was checked with acetylcholine (10-40 ng kg^-1 IV) and after constant response was obtained, there were injected, IV, first the propylene glycol and, five minutes later, 60 ng/kg of PAF Acether, which gave the control bronchoconstriction expressed as % of maximal bronchoconstriction given by clamping off the trachea. 40 minutes later, the tested compounds were administered by IV injection and, 5 minutes later, 60 ng/kg of PAF Acether by the same route. This experimentation was conducted on three batches of each 10 animals: first batch for Ginkgolide A, second one for Ginkgolide B and last one for Ginkgolide C, all at the 1 mg/kg dose. The figures of the following table are the average values for the 10 animals of each batch.

thermal-injured patients = test: Preliminary clinical trial in thermal-injured patients (open study); type: in vivo, human; settings: perfusion 5 mg per hour for six hours then 2 mg per hour for 48 hours; 13 patients, burnt surface area >50%
Description: An open study has been performed on 13 thermal-injured patients (total burnt surface area >50%) treated by Ginkgolide B.
The Ginkgolide B was administered in a perfusion (5 mg per hour for six hours and then 2 mg per hour for the following 48 hours).

In the case of `CC1C(=O)OC2C(O)C34C5CC(C(C)(C)C)C36C(OC(=O)C6O)OC4(C(=O)O5)C12O` (stereo not drawn) [Ginkgolide B], the “% of aggregation with respect to control” value (human platelets; blood take at 0.5 h) is reported as 0%, the “% of aggregation with respect to control” value (human platelets; blood take at 1.0 h) is reported as 3.4% and the inhibition at 30 µg/mL ([1]; Cavia porcellus, read-out: change of PAF Acether (3 ng)-induced contraction) is reported as 78.8%. For the same molecule, the “Contraction induced by PAF Acether (3 ng) (Arbitrary Units)” value ([1]; preventive superfusion 30 μg/ml, average of 10 determinations) was 8.05 ± 2.16 Arbitrary Units, the IC50 (rat portal vein; Rattus norvegicus, PAF Acether 10^-7 M, added 30 minutes before PAF Acether, read-out: IC50 (antagonism of PAF Acether-induced increase of the basal tonus)) was 6.8 µg/mL (≈ 16 µM) and the “effect on the myogenic activity” value (rat portal vein; isolated rat portal vein) was “without effect”. For the same molecule, the “inhibition of PAF Acether-induced decline in contractile strength and decrease of coronary flow” value ([2]; 2.10^-4 M) was “totally inhibited”, the “dose at which protective activity disappears” value [2] was ≤ 10^-7 M and the “PAF Acether induced wheal, Surface” value (Sprague-Dowley rats; PAF Acether 25 ng intradermal, 30 mn, p < 0.001) was 58.5 mm^2. For the same molecule, the “PAF Acether induced wheal, Coloration OD” value (Sprague-Dowley rats; optical density at 620 nm, p < 0.001) was 0.628 OD, the “PAF Acether induced wheal, Coloration % decrease” value (Sprague-Dowley rats; vs control) was -45% and the “PAF Acether induced wheal, Surface % decrease” value (Sprague-Dowley rats; vs control) was -43%. The “% of bronchoconstriction” value (Hartley guinea-pig; 5 minutes before PAF Acether 60 ng/kg IV, % of maximal bronchoconstriction, average of 10 animals) was 6.2%, the “% of inhibition (bronchoconstriction)” value (Hartley guinea-pig; vs solvent in the same batch) was 92.3% and the “clinical outcome in thermal-injured patients” value (thermal-injured patients) was “faster recovery (decreased oedema, decreased plasma leakage and improvement of clinical outcome)”.
